Reference: ChEMBL document CHEMBL6074715, “Discovery of pyridine-based derivatives as FLT3 inhibitors for the treatment of acute myeloid leukemia” (Eur J Med Chem, 2025)
The source made the active and inactive calls. The rule behind the calls is not given here.

What was measured:
[1] = molecular target: Receptor-type tyrosine-protein kinase FLT3 (Homo sapiens, UniProt P36888, ITD); test: Inhibition of FLT3 ITD mutant (unknown origin) preincubated for 10 mins followed by addition of peptide solution by caliper mobility shift assay
MOLM-13 [2] = test: Induction of apoptosis in human MOLM-13 cells assessed as necrotic cells at 1 uM measured after 48 hrs by annexin-V and PI staining based flow cytometry analysis (reference value: 0.087%); type: functional
MV4-11 = test: Antiproliferative activity against human MV4-11 cells assessed as inhibition of cell growth measured after 72 hrs by Celltiter-glo luminescent cell viability assay; type: functional, cell-based; conditions: MV4-11, 72 h
MOLM-13 [3] = test: Induction of cell cycle arrest in human MOLM-13 cells assessed as accumulation of cells at S phase at 0.3 uM measured after 48 hrs by PI staining based flow cytometry analysis (reference value: 45.3%); type: functional
[4] = Tmax in Sprague-Dawley rat at 5 mg/kg, iv measured upto 48 hrs by LC-MS/MS analysis; type: ADME, organism-based; conditions: in vivo
[5] = molecular target: Receptor-type tyrosine-protein kinase FLT3 (Homo sapiens) (UniProt P36888); test: Inhibition of FLT3 phosphorylation in human MOLM-13 cells at 40 nM incubated for 2 hrs by Western blot analysis relative to control; type: cell-based
Sequence of Receptor-type tyrosine-protein kinase FLT3 (Homo sapiens) (P36888 whole entry): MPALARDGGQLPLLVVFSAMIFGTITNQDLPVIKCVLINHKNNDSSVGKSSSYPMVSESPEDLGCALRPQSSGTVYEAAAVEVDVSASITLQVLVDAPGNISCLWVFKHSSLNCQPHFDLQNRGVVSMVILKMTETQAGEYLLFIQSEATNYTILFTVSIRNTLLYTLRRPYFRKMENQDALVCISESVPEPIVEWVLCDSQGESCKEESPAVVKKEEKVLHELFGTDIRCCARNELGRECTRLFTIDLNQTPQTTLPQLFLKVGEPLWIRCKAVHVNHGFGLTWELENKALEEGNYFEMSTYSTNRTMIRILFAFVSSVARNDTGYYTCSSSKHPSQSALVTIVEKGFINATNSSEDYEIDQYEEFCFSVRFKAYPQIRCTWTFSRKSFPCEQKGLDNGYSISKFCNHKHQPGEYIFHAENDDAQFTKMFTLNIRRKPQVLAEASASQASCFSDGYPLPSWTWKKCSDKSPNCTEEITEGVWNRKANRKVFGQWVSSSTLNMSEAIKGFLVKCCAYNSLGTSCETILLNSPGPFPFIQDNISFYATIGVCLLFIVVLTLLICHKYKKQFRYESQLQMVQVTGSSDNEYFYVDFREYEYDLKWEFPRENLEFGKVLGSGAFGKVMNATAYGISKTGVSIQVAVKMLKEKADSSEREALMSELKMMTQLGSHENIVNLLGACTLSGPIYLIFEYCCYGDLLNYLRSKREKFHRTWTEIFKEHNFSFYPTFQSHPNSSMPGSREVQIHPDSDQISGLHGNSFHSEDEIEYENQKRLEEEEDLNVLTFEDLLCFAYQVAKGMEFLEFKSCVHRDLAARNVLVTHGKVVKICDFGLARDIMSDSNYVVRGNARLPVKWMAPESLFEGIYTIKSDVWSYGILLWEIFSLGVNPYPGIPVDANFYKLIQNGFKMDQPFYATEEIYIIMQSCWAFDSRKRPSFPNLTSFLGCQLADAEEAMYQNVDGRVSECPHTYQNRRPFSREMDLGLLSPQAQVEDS

[6] = molecular target: Serine/threonine-protein kinase Nek2 (Homo sapiens) (UniProt P51955); test: Inhibition of human NEK2 at 1 uM by Eurofins kinase assay
[7] = Volume of distribution in Sprague-Dawley rat at 5 mg/kg, iv measured upto 48 hrs by LC-MS/MS analysis; type: ADME, organism-based; conditions: in vivo
Jurkat = test: Antiproliferative activity against human Jurkat cells assessed as inhibition of cell growth measured after 72 hrs by Celltiter-glo luminescent cell viability assay; type: functional, cell-based
MOLM-13 [8] = test: Induction of cell cycle arrest in human MOLM-13 cells assessed as accumulation of cells at G2 phase at 0.3 uM measured after 48 hrs by PI staining based flow cytometry analysis (reference value: 12.5%); type: functional
[9] = molecular target: Tyrosine-protein kinase receptor UFO (Homo sapiens) (UniProt P30530); test: Inhibition of human AXL at 1 uM by Eurofins kinase assay
[10] = molecular target: Mitogen-activated protein kinase 1 (Homo sapiens) (UniProt P28482); test: Inhibition of human MAPK1 at 1 uM by Eurofins kinase assay
[11] = Toxicity in female NSG mouse assessed as effect on body weight loss at 20 to 40 mg/kg, po measured after 21 days; type: organism-based; conditions: in vivo, 504 h, dose 20-40 mg/kg, time 21 day
MOLM-13 [12] = test: Induction of cell cycle arrest in human MOLM-13 cells assessed as accumulation of cells at S phase at 1 uM measured after 48 hrs by PI staining based flow cytometry analysis (reference value: 45.3%); type: functional
MOLM-13 [13] = test: Induction of apoptosis in human MOLM-13 cells assessed as late apoptotic cells at 3 uM measured after 48 hrs by annexin-V and PI staining based flow cytometry analysis (reference value: 2.28%); type: functional
[14] = molecular target: Serine/threonine-protein kinase PAK 4 (Homo sapiens) (UniProt O96013); test: Inhibition of human PAK4 at 1 uM by Eurofins kinase assay
Sequence of Serine/threonine-protein kinase PAK 4 (Homo sapiens) (O96013 whole entry, looked up): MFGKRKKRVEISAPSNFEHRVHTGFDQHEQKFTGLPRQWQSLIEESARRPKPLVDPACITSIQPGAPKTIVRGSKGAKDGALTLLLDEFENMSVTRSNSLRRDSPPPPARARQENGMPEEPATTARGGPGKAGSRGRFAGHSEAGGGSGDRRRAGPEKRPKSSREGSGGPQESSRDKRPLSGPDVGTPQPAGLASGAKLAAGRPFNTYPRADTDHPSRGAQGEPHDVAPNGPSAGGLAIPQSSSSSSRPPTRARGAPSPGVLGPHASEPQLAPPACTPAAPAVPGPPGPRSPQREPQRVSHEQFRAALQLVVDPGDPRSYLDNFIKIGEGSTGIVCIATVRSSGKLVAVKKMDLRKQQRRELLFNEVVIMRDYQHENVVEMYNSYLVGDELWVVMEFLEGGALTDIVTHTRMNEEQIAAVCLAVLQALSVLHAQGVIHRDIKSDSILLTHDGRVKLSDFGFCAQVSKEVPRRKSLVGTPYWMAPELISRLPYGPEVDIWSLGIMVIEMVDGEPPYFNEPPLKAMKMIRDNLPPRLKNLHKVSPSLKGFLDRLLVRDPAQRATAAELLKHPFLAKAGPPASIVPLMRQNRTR

MOLM-13 [15] = test: Antiproliferative activity against human MOLM-13 cells assessed as inhibition of cell growth measured after 72 hrs by Celltiter-glo luminescent cell viability assay; type: functional, cell-based; conditions: MOLM-13, 72 h
MOLM-13 [16] = test: Effect on FLT3 level in human MOLM-13 cells at 0.04 to 5 nM measured after 2 hrs by Western blot analysis; type: functional, cell-based; conditions: dose 0.04-5 nM
[17] = test system: Receptor-type tyrosine-protein kinase FLT3 (Homo sapiens), P36888 [UNDEFINED MUTATION]; test: Inhibition of human FLT3-ITD at 1 uM by Eurofins kinase assay
Sequence of Receptor-type tyrosine-protein kinase FLT3 (Homo sapiens), P36888 [UNDEFINED MUTATION] (P36888 whole entry, looked up, stated change not applied): as the sequence (P36888 whole entry) above

[18] = molecular target: Wee1-like protein kinase (Homo sapiens) (UniProt P30291); test: Inhibition of human Wee1 at 1 uM by Eurofins kinase assay
Sequence of Wee1-like protein kinase (Homo sapiens) (P30291 whole entry, looked up): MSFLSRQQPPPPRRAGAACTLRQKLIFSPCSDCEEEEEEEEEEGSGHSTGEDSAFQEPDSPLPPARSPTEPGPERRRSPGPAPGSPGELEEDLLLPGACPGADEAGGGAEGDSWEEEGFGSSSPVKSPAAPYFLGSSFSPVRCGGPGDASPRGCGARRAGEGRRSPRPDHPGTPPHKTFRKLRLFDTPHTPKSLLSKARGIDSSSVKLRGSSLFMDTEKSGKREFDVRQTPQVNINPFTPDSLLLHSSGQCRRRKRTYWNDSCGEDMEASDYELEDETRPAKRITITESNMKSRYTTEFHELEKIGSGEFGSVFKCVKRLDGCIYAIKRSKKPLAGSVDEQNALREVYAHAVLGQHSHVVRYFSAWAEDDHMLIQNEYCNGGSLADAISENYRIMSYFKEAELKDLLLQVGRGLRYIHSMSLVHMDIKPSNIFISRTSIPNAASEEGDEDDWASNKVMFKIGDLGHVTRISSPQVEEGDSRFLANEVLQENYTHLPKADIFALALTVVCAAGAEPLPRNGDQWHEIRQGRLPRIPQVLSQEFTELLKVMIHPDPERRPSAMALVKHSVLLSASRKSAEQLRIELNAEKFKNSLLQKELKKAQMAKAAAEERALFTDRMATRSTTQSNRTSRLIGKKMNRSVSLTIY

[19] = molecular target: Insulin-like growth factor 1 receptor (Homo sapiens) (UniProt P08069); test: Inhibition of human IGF-1R at 1 uM by Eurofins kinase assay
[20] = AUC (0 to infinity) in Sprague-Dawley rat at 5 mg/kg, iv measured upto 48 hrs by LC-MS/MS analysis; type: ADME, organism-based; conditions: in vivo
[21] = molecular target: Fibroblast growth factor receptor 1 (Homo sapiens) (UniProt P11362); test: Inhibition of human FGFR1 at 1 uM by Eurofins kinase assay
[22] = molecular target: Non-receptor tyrosine-protein kinase TYK2 (Homo sapiens) (UniProt P29597); test: Inhibition of human TYK2 at 1 uM by Eurofins kinase assay
OE33 = test: Antiproliferative activity against human OE33 cells assessed as inhibition of cell growth measured after 72 hrs by Celltiter-glo luminescent cell viability assay; type: functional, cell-based; conditions: OE33, 72 h
Homo sapiens = organism: Homo sapiens; test: Inhibition of human CDK1/cyclinB at 1 uM by Eurofins kinase assay
[23] = molecular target: Tyrosine-protein kinase JAK2 (Homo sapiens) (UniProt O60674); test: Inhibition of human JAK2 at 1 uM by Eurofins kinase assay
MOLM-13 [24] = test: Induction of cell cycle arrest in human MOLM-13 cells assessed as accumulation of cells at G2 phase at 3 uM measured after 48 hrs by PI staining based flow cytometry analysis (reference value: 12.5%); type: functional
[25] = molecular target: Tyrosine-protein kinase ZAP-70 (Homo sapiens) (UniProt P43403); test: Inhibition of human ZAP-70 at 1 uM by Eurofins kinase assay
SBC-5 = test: Antiproliferative activity against human SBC-5 cells assessed as inhibition of cell growth measured after 72 hrs by Celltiter-glo luminescent cell viability assay; type: functional, cell-based; conditions: SBC-5, 72 h
[26] = molecular target: Vascular endothelial growth factor receptor 2 (Homo sapiens, UniProt P35968); test: Inhibition of human KDR at 1 uM by Eurofins kinase assay
[27] = Antiproliferative activity against human PBMC cells assessed as inhibition of cell growth measured after 72 hrs by Celltiter-glo luminescent cell viability assay; type: toxicity, cell-based
MOLM-13 [28] = test: Induction of apoptosis in human MOLM-13 cells assessed as viable cells at 0.3 uM measured after 48 hrs by annexin-V and PI staining based flow cytometry analysis (reference value: 88.7%); type: functional; conditions: read-out: Activity
[29] = molecular target: ALK tyrosine kinase receptor (Homo sapiens) (UniProt Q9UM73); test: Inhibition of human ALK at 1 uM by Eurofins kinase assay
Sequence of ALK tyrosine kinase receptor (Homo sapiens) (Q9UM73 19-1620 limits assumed): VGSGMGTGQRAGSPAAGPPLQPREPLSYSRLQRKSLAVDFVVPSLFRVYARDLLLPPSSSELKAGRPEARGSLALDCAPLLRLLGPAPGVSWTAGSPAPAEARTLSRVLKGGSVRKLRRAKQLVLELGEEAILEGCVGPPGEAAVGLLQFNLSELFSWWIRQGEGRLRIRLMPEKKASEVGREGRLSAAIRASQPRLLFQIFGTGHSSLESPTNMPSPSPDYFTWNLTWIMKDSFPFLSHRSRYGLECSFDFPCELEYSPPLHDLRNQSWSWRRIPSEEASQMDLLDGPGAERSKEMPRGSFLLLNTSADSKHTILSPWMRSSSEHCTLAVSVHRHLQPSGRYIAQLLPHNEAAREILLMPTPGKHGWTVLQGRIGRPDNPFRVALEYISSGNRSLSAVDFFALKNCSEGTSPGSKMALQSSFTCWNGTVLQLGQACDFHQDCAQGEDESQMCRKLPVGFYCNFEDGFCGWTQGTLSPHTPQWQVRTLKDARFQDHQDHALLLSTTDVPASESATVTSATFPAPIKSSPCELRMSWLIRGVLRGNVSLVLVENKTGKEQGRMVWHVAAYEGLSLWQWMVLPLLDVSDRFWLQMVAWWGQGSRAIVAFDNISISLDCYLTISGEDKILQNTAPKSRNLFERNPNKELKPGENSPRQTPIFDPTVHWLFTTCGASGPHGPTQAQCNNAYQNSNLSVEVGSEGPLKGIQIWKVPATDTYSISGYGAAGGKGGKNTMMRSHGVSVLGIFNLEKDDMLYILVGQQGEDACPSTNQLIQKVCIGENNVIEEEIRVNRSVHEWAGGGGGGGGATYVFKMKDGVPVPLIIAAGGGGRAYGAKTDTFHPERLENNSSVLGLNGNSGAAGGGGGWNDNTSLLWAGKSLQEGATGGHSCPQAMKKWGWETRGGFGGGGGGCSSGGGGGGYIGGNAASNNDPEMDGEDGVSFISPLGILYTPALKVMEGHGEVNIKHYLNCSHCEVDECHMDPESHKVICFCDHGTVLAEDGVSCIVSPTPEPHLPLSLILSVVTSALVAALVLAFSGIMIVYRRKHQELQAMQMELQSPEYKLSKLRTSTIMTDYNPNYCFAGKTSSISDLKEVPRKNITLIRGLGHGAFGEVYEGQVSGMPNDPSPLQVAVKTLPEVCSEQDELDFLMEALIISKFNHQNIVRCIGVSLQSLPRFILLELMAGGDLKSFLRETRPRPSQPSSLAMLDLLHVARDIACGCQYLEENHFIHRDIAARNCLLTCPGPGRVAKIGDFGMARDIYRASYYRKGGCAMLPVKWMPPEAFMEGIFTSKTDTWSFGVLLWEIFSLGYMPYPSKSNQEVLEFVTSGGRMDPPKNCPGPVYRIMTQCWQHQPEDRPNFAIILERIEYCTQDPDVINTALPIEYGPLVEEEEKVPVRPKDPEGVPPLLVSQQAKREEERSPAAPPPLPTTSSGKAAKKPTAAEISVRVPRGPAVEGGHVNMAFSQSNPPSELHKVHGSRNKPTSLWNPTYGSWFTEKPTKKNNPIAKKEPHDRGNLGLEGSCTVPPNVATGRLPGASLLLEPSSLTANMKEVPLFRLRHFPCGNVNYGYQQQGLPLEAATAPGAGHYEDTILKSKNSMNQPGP

MOLM-13 [30] = test: Induction of apoptosis in human MOLM-13 cells assessed as viable cells at 1 uM measured after 48 hrs by annexin-V and PI staining based flow cytometry analysis (reference value: 88.7%); type: functional; conditions: read-out: Activity
HL-60 = test: Antiproliferative activity against human HL-60 cells harbouring wild type FLT3 assessed as inhibition of cell growth measured after 72 hrs by Celltiter-glo luminescent cell viability assay; type: functional, cell-based; conditions: HL-60, 72 h
[31] = Antiproliferative activity against mouse Ba/F3 FLT3-ITD cells assessed as inhibition of cell growth measured after 72 hrs by Celltiter-glo luminescent cell viability assay; type: functional, cell-based
[32] = Half life in Sprague-Dawley rat at 5 mg/kg, iv measured upto 48 hrs by LC-MS/MS analysis; type: ADME, organism-based; conditions: in vivo

Compound: O=C(Nc1ccc(Oc2ccnc(NC(=O)N3CC(O)C3)c2)c(F)c1)c1cn(-c2cccnc2)nn1
- IC50 [1]: 69 nM
- Activity (MOLM-13 [2]): 0.26%
- IC50 (MV4-11): 130 nM
- Activity (MOLM-13 [3]): 14%
- Tmax [4]: 1.8 min
- inhibition [5]: 100%
- inhibition [6]: inactive
- Vd [7]: 0.301 L/kg
- IC50 (Jurkat): > 30000 nM
- Activity (MOLM-13 [8]): 4.21%
- inhibition [9]: inactive
- inhibition [10]: inactive
- Activity [11]: Non-toxic
- Activity (MOLM-13 [12]): 3.57%
- Activity (MOLM-13 [13]): 11%
- inhibition [14]: inactive
- IC50 (MOLM-13 [15]): 62 nM
- Activity (MOLM-13 [16]): Not active; Compound Barely Affect Flt3 Level
- inhibition [17]: inactive
- inhibition [18]: inactive
- inhibition [19]: inactive
- AUC(0-inf) [20]: 59400 ng·h/mL
- inhibition [21]: inactive
- inhibition [22]: inactive
- IC50 (OE33): > 30000 nM
- inhibition (Homo sapiens): inactive
- inhibition [23]: inactive
- Activity (MOLM-13 [24]): 1.05%
- inhibition [25]: inactive
- IC50 (SBC-5): > 30000 nM
- inhibition [26]: inactive
- IC50 at 72 h [27]: > 30000 nM
- viability at 0.3 µM (MOLM-13 [28]): 68.4%
- inhibition [29]: inactive
- viability at 1 µM (MOLM-13 [30]): 56.7%
- IC50 (HL-60): 7700 nM
- IC50 [31]: 85 nM
- half-life [32]: 2.46 h
